Data reported in ChEMBL document CHEMBL1201862, “PubChem BioAssay data set” (2004).
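Dose response: 5 concentrations. Exposure: 48 h. Format: 96-well plates. Endpoint: linear interpolation; highest concentration if not reached. GI50 marks 50% less growth.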 Activity calls are given as the source filed them. No stated cut-off is given here; in the data, active = GI50 up to about 1.1 µM and inactive = higher.

How the values were obtained:
Assay in all cases: NCI anticancer screen, dose series, 48 h
MOLT-4 = tested on: MOLT-4
NCI/ADR-RES = tested on: NCI/ADR-RES
MDA-MB-231 = tested on: MDA-MB-231
786-0 = tested on: 786-0
NCI-H460 = tested on: NCI-H460
T47D = tested on: T47D
HL-60 = tested on: HL-60
RPMI-8226 = tested on: RPMI-8226
PC-3 = tested on: PC-3
ACHN = tested on: ACHN
SK-MEL-2 = tested on: SK-MEL-2
NCI-H522 = tested on: NCI-H522
IGROV-1 = tested on: IGROV-1
SK-MEL-28 = tested on: SK-MEL-28
HOP-62 = tested on: HOP-62
HT-29 = tested on: HT-29
A498 = tested on: A498
MDA-MB-435 = tested on: MDA-MB-435
SNB-75 = tested on: SNB-75

Measured: GI50

CC(C)(Cl)C(Br)CCC(C)(Br)C(Br)CBr (configuration not stated)
inactive: MOLT-4 19.6 µM | NCI/ADR-RES 17 µM | MDA-MB-231 12.9 µM | 786-0 17.4 µM | NCI-H460 15.3 µM | T47D 18.7 µM | HL-60 17 µM | RPMI-8226 19.2 µM | PC-3 24.9 µM | ACHN 17.4 µM | SK-MEL-2 14.7 µM | NCI-H522 13 µM | IGROV-1 19.6 µM | SK-MEL-28 17.2 µM | HOP-62 16.1 µM | HT-29 15.8 µM | A498 19.3 µM | MDA-MB-435 17.8 µM

CCOC(=O)N(C)CCC1CC=CC(=O)C1c1cccc(OC)c1OC (configuration not stated)
inactive: MOLT-4 22.5 µM | NCI/ADR-RES 19.8 µM | MDA-MB-231 26.1 µM | 786-0 17 µM | NCI-H460 16.7 µM | T47D 21.4 µM | HL-60 19.4 µM | RPMI-8226 14.2 µM | PC-3 12.2 µM | ACHN 34 µM | SK-MEL-2 13.7 µM | NCI-H522 13.6 µM | IGROV-1 36.1 µM | HOP-62 24.4 µM | HT-29 13.8 µM | A498 33.3 µM | MDA-MB-435 10.6 µM

Cc1cn(C2CC(N(O)C(N)=O)C(CO)O2)c(=O)[nH]c1=O (configuration not stated)
inactive: MOLT-4 > 100 µM | NCI/ADR-RES > 100 µM | MDA-MB-231 > 100 µM | 786-0 > 100 µM | T47D > 100 µM | RPMI-8226 > 100 µM | PC-3 > 100 µM | ACHN > 100 µM | SK-MEL-2 > 100 µM | NCI-H522 > 100 µM | SK-MEL-28 > 100 µM | HOP-62 > 100 µM | HT-29 > 100 µM | A498 > 100 µM | MDA-MB-435 > 100 µM

Cc1nc(N)sc1C(=O)Nc1nc[nH]n1
inactive: MOLT-4 52.1 µM | NCI/ADR-RES > 100 µM | MDA-MB-231 > 100 µM | 786-0 > 100 µM | NCI-H460 > 100 µM | T47D > 100 µM | HL-60 13.3 µM | RPMI-8226 > 100 µM | PC-3 > 100 µM | ACHN > 100 µM | SK-MEL-2 > 100 µM | NCI-H522 > 100 µM | IGROV-1 > 100 µM | SK-MEL-28 > 100 µM | HOP-62 > 100 µM | HT-29 > 100 µM | MDA-MB-435 > 100 µM

Nc1ncn(C/C=C/c2ccccc2)c2ncnc1-2
inactive: MOLT-4 16.6 µM | NCI/ADR-RES > 100 µM | MDA-MB-231 > 100 µM | 786-0 > 100 µM | NCI-H460 > 100 µM | T47D > 100 µM | RPMI-8226 > 100 µM | PC-3 > 100 µM | ACHN > 100 µM | SK-MEL-2 > 100 µM | NCI-H522 78.2 µM | IGROV-1 > 100 µM | SNB-75 70.3 µM | SK-MEL-28 > 100 µM | HOP-62 > 100 µM | HT-29 50.9 µM | A498 75.3 µM | MDA-MB-435 > 100 µM

N/N=C1/CCCc2nonc21
inactive: MOLT-4 > 100 µM | NCI/ADR-RES > 100 µM | MDA-MB-231 > 100 µM | 786-0 > 100 µM | NCI-H460 > 100 µM | T47D > 100 µM | HL-60 > 100 µM | RPMI-8226 > 100 µM | PC-3 > 100 µM | ACHN > 100 µM | SK-MEL-2 > 100 µM | IGROV-1 > 100 µM | SK-MEL-28 > 100 µM | HOP-62 > 100 µM | HT-29 > 100 µM | MDA-MB-435 > 100 µM

CC12CN(CC[N+](C)(C)C)CC1(C)C1CCC2O1 (configuration not stated)
inactive: MOLT-4 > 100 µM | NCI/ADR-RES > 100 µM | MDA-MB-231 > 100 µM | 786-0 > 100 µM | NCI-H460 > 100 µM | T47D > 100 µM | RPMI-8226 > 100 µM | PC-3 > 100 µM | ACHN > 100 µM | SK-MEL-2 > 100 µM | NCI-H522 > 100 µM | IGROV-1 > 100 µM | SNB-75 > 100 µM | SK-MEL-28 > 100 µM | HOP-62 > 100 µM | HT-29 > 100 µM | A498 > 100 µM | MDA-MB-435 > 100 µM

C/C(O[Si](C(C)C)(C(C)C)C(C)C)=C(\C)C(=O)N(C)c1ccccc1Cl
inactive: MOLT-4 > 100 µM | NCI/ADR-RES > 100 µM | MDA-MB-231 > 100 µM | 786-0 > 100 µM | NCI-H460 > 100 µM | T47D > 100 µM | RPMI-8226 > 100 µM | ACHN > 100 µM | NCI-H522 73.8 µM | IGROV-1 > 100 µM | SNB-75 81.5 µM | SK-MEL-28 > 100 µM | HOP-62 > 100 µM | HT-29 > 100 µM | A498 > 100 µM | MDA-MB-435 > 100 µM

c1ccc([B-]2(c3ccccc3)OCCc3cccc[n+]32)cc1
inactive: MOLT-4 56.2 µM | NCI/ADR-RES 59 µM | MDA-MB-231 84.5 µM | 786-0 70.1 µM | NCI-H460 60.3 µM | T47D 41 µM | HL-60 40.8 µM | RPMI-8226 65.3 µM | PC-3 18.5 µM | ACHN 37.9 µM | SK-MEL-2 75.9 µM | NCI-H522 49.1 µM | IGROV-1 66.1 µM | SK-MEL-28 47.8 µM | HOP-62 > 100 µM | HT-29 87.1 µM | A498 19.6 µM | MDA-MB-435 33.3 µM

COC(=O)C1=C(C)NC(=S)NC1c1ccc(N(CCCl)CCCl)cc1Cl (configuration not stated)
inactive: MOLT-4 4.55 µM | NCI/ADR-RES 37 µM | MDA-MB-231 21 µM | 786-0 51.3 µM | NCI-H460 22 µM | T47D 6.71 µM | HL-60 39.4 µM | RPMI-8226 1.33 µM | PC-3 20.9 µM | ACHN 11 µM | SK-MEL-2 24.2 µM | NCI-H522 31.8 µM | IGROV-1 29.4 µM | SNB-75 > 54.6 µM | SK-MEL-28 29 µM | HOP-62 73.6 µM | HT-29 32.5 µM | MDA-MB-435 12.5 µM

C=CCN1CCC(OC(=O)C(O)(C#CC)C2CCCC2)CC1 (configuration not stated)
inactive: MOLT-4 > 100 µM | NCI/ADR-RES > 100 µM | MDA-MB-231 > 100 µM | 786-0 > 100 µM | NCI-H460 > 100 µM | T47D > 100 µM | RPMI-8226 > 100 µM | PC-3 > 100 µM | ACHN > 100 µM | SK-MEL-2 > 100 µM | NCI-H522 > 100 µM | IGROV-1 > 100 µM | SNB-75 > 77.3 µM | SK-MEL-28 > 100 µM | HOP-62 > 100 µM | HT-29 > 100 µM | A498 > 100 µM | MDA-MB-435 > 100 µM

O=C(/C=C/c1ccc(O)c(O)c1O)OCCc1ccccc1
inactive: MOLT-4 23.6 µM | NCI/ADR-RES 29.8 µM | MDA-MB-231 24.9 µM | 786-0 16 µM | NCI-H460 21.6 µM | T47D 82.2 µM | HL-60 22 µM | RPMI-8226 21.2 µM | PC-3 48.9 µM | ACHN 39.2 µM | SK-MEL-2 61.9 µM | NCI-H522 27.9 µM | IGROV-1 32.9 µM | SK-MEL-28 > 100 µM | HOP-62 26.2 µM | HT-29 22.7 µM | A498 74.6 µM | MDA-MB-435 17.5 µM
